# Assay results reported in patent publication US6998234B2, “Methods for cancer prognosis and diagnosis relating to tumor vascular endothelial cells” (Oncotech, Inc., priority 2000, dated 2006).
# Columns and labels:
# endothelial cells = conditions: from Mendel et al. 2000 (SU5416) and Laird et al. 2000 (SU6668); read-out: predetermined IC50 concentration; cited from earlier work
# HUVEC [1] = assay: Annexin V staining test for endothelial cells undergoing apoptosis (Annexin V-FITC/PI flow cytometry); assay type: cell-based, human; conditions: HUVEC on collagen I, 0.0011 μM mM docetaxel, FIG. 6
# Description: Altered cell attachment and loss of membrane integrity are among the earliest morphological features of programmed cell death. Annexin V, a 35-36 kDa Ca^2+-dependent phospholipid-binding protein, has a high affinity for the membrane phospholipid phosphatidylserine, normally located on the inner leaflet of the cell membrane (Raynal et al., 1994, Biochem. et Biophys. Acta. 1197:63-93). In cells undergoing apoptosis, however, phosphatidylserine is translocated to the outer leaflet of the plasma membrane and can be detected by Annexin V labeled with fluorescent dyes, such as FITC. To distinguish truly apoptotic cells from necrotic cells, Annexin V was used in combination with PI exclusion. In this assay, HUVEC undergoing apoptosis are Annexin V-positive, PI negative, while necrotic cells are Annexin V-positive, PI-positive.
# As an example, HUVEC cells were cultured on collagen I and treated with 0.0011 μM mM docetaxel and then stained with both Annexin V and PI. Annexin V binding and PI staining of nuclei were documented for the same cell population using the PharMingen Annexin V flow cytometry assay and two-color immunofluorescence on live HUVEC monolayers. Staining with Annexin V-FITC was visible on the membrane as green fluorescence, and PI staining was visible in the nucleus as red fluorescence. […] In a separate experiment, HUVEC cells were transferred into Ultra Low Attachment 24-well plates (Corning, Inc., Corning N.Y.) covered with a layer of hydrogel that is hydrophilic and neutrally charged. The hydrogel surface inhibits non-specific immobilization, and therefore subsequent cell attachment, because proteins and other biomolecules passively adsorb to surfaces through hydrophobic and ionic interactions. Because of the lack of appropriate ECM providing anti-apoptotic signals, HUVEC undergo rapid apoptosis under these culture conditions. For example, 24 hours after their transfer into Ultra Low Attachment plates, 61% of HUVEC cells were undergoing an (Annexin V-positive, PI-negative) apoptotic process (shown in FIG. 7).
# HUVEC [2] = assay: APO-DIRECT assay (late apoptosis, DNA breaks); assay type: cell-based, human; conditions: collagen I, 1 μM docetaxel, 48 hours, FIG. 8
# Description: The APO-DIRECT assay (Phoenix Flow Systems, San Diego, Calif.) utilizes single step fluorescent labeling and flow cytometric analysis by taking advantage of the multitude of 3′-hydroxyl termini of DNA present in apoptotic cells. One of the hallmarks of cellular self-destruction by apoptosis is the activation of nucleases that degrade the higher order chromatin structure of the DNA into fragments of 50 to 300 kilobases. These DNA fragments result in the appearance of “DNA laddering” when the DNA is analyzed by agarose gel electrophoresis. (Arends et al., 1990, Am. J. Pathol. 136:593-608). Apoptotic cells were identified by labeling the 3′-hydroxy ends of double- and single-stranded DNA breaks with fluorescent-tagged deoxyuridine triphosphate nucleotides (F-dUTP) using the enzyme deoxynucleotidyl transferase (TdT). […] The APO-DIRECT assay identified cells undergoing apoptosis at a later stage of programmed cell death than assays based on Annexin V binding.
# In these experiments, HUVEC were incubated on collagen I for 48 hours in the presence of 1 μM docetaxel. The cells were fixed in paraformaldehyde and stored at −20° C. until use. […] The gating display was created according to Phoenix Flow protocol using Linear Red Fluorescence (DNA) on the X-axis and Log green Fluorescence (d-UTP) on the Y-axis. […]
# HUVEC [3] = assay: HUVEC morphology by phase contrast microscopy; assay type: cell-based, human; conditions: HUVEC on collagen I, 48 hours; 10 μM or 1 μM docetaxel, 10 μM thalidomide, FIG. 11
# Method: (§1) HUVEC were cultured for 48 hours on collagen I and treated with either 10 μM docetaxel, 1 μM docetaxel, or 10 μM thalidomide. The effect on cell morphology was observed by phase contrast microscopy. In addition, apoptotic HUVEC cultured on collagen in the presence of 10 μM docetaxel were stained with AnnexinV-FITC (green fluorescence) and PI (red fluorescence) and visualized with immunofluorescent photomicrography. […] An atypical pattern of Dil-ac-LDL accumulation in drug-treated cells was observed under high magnification.
# HUVEC [4] = assay: Dil-ac-LDL uptake by HUVEC; assay type: cell-based, human; conditions: HUVEC on collagen I, 48 hours, 10 μM docetaxel, FIG. 12
# Description: The uptake of Dil-ac-LDL (Biomedical Technologies, Inc., Stoughton Mass.) was utilized to identify and characterize differentiated VEC using fluorescent microscopy on live cell monolayers. After uptake, Dil-ac-LDL is degraded by lysosomal enzymes in endothelial cells, with the Dil fluorescent probe accumulating in the intracellular membrane. (Pitas et al., 1985, J. Cell. Biol. 100:103-117). Discrimination using this system is high, because no other cell type, with the exception of macrophages, is labeled to the same degree as VEC (Voura et al, 1998, Microsc. Res. Tech. 43: 265-275; Pitas et al., 1985, J. Cell Biol. 100:103-117), and macrophages can be excluded from the analysis and sorting protocols with CD45 staining. In addition, macrophages can be differentiated from VEC because the […] is more brightly labeled with Dil-ac-LDL.
# as §1
# HUVEC [5] = assay: HUVEC tubulogenesis on MATRIGEL; assay type: cell-based, human; conditions: three hours after cell transfer
# Description: Functional tests were also used to characterize the differentiation status of VEC cultured in different growth environments in vitro, as previously described. (Hewett et al., 1993, In Vitro Cell Dev. Biol. 29A: 823-830; Benelli et al., 1999, Int. J. Biol Markers 14: 243-246). MATRIGEL, a three-dimensional support matrix that is composed of solubilized membranes extracted from Engelbreth-Holm-Swarm (“EHS”) mouse sarcoma cells, was used because of the ability of mammalian VEC derived from different tissue sources to form capillary-like tubules and generate branched and forked networks in this media. The major components of this matrix are ECM proteins, such as laminin, collagen IV, entactin, and heparan sulphate proteoglycan, as well as growth factors, such as bFGF and EGF. MATRIGEL has previously been used to induce and maintain differentiation of endothelial, muscle, and neuronal cells, and for the development of three-dimensional matrix and cell invasion systems in vitro. (Gargett et al., 2000, Hum. Reprod. 15:293-301; Voura et al., 1998, Microsc. Res. Tech. 43: 265-275).
# VEC were cultured both on BIOCOAT MATRIGEL matrix-coated tissue culture flasks (Becton Dickinson), and on MATRIGEL matrix prepared from pre-frozen gels that were thawed, kept at +4° C. before use and solidified at +37° C. for 3-16 hours before testing. The optimal time to detect the formation of tubules and capillary-like networks on MATRIGEL was from 3-6 hours. (Gargett et al., 2000, Hum. Reprod. 15:293-301; Voura et al., 1998, Microsc. Res. Tech. 43: 265-275). […] No viable VEC were found in MATRIGEL cultures after 48 hours.
# [6] = system: VEC derived from fresh tumor specimens; assay: Microarray analysis of drug-resistant versus drug-sensitive tumor-derived VEC sorted by Annexin V; assay type: cell-based, human; conditions: 0.1 μM docetaxel, 24 hours
# Method: Anti-angiogenesis agents were screened using highly purified populations of endothelial cells derived from fresh tumor specimens. 2×10^7 VEC that were sorted for the expression of CD31 and CD105 endothelial markers were exposed to 0.1 μM docetaxel or 50 μM BSO, a proprietary drug. […] After 24 hours of drug exposure in cytophobic plates, VEC were sorted under sterile conditions using the above Annexin V-flow cytometry protocol. To ensure the purity of sorted VEC, the sorted populations were reanalyzed by flow cytometry for Annexin V and PI staining, as shown in FIG. 17. The purity of the sorted VEC populations varied between 97.3% and 99.1%. Total RNA was isolated from both resistant (Annexin V−/PI−) and sensitive (Annexin V+/PI−) populations, and cDNA probes were hybridized with Research Genetics GeneFilters© microarrays containing over 40,000 known human gene sequences. In order to compare the microarray results for the drug-resistant sample to the drug-sensitive sample, FIG. 18 is a two-dimensional scatter plot constructed of intensity values from the microarrays normalized by converting to the fraction of total intensity and then log transformed, which was used to compare the microarray results for the resistant and sensitive sample. Diagonal lines were utilized that separated the genes that have more than a 2-fold difference in expression level.
# [7] = RESISTANT, resistant versus sensitive VEC
# [8] = SENSITIVE, resistant versus sensitive VEC
smiles,measurement,setting,value
Cc1cc(C)c(/C=C2\C(=O)Nc3ccccc32)[nH]1 [SU5416],IC50,endothelial cells,1000 nM
Cc1[nH]c(/C=C2\C(=O)Nc3ccccc32)c(C)c1CCC(=O)O [SU6668],IC50,endothelial cells,340 nM
CC(=O)O[C@@]12CO[C@@H]1C[C@H](O)[C@@]1(C)C(=O)[C@H](O)C3=C(C)[C@@H](OC(=O)[C@H](O)[C@@H](NC(=O)OC(C)(C)C)c4ccccc4)C[C@@](O)([C@@H](OC(=O)c4ccccc4)[C@H]21)C3(C)C [docetaxel],cells dead due to either apoptosis or necrosis,HUVEC [1],16%
same,"cells intact (Annexin V-negative, PI-negative)",HUVEC [1],80%
same,cells undergoing apoptosis,HUVEC [1],3.5%
same,HUVEC that had undergone apoptosis,HUVEC [2],73%
same,effect on cell morphology,HUVEC [3],rounded and partially detached HUVEC
same,Dil-ac-LDL uptake,HUVEC [4],very few docetaxel-treated HUVEC took up DIL-as-LDL
same,tubulogenesis on MATRIGEL,"HUVEC [5]; 10 μM, FIG. 13",complete absence of VEC-like tubules
same,tubulogenesis and capillary-like network formation on MATRIGEL,"HUVEC [5]; lower doses (1, 0.1, 0.01, 0.001 μM)",inhibited tubulogenesis and capillary-like network formation
same,"Ratio, Human HLK1 mRNA, complete cds",[6]; [7],3.6
same,"Ratio, Interferon regulatory factor 5",[6]; [7],4.4
same,"Ratio, Keratin, type I cytoskeletal 14",[6]; [7],4
same,"Ratio, Small proline-rich protein 1B (cornifin)",[6]; [7],3.6
same,"Ratio, Tuberin",[6]; [7],3.2
same,"Ratio, Fibrinogen beta-chain precursor",[6]; SENSITIVE,4.9
same,"Ratio, Human TWIK-related acid-sensitive K + channel gene",[6]; SENSITIVE,5.9
same,"Ratio, Human metallothionein (MT)I-F gene",[6]; [8],6.2
same,"Ratio, Human mucosal addressin cell adhesion molecule",[6]; [8],9.5
same,"Ratio, Human putative fatty acid desaturase",[6]; [8],5.2
O=C1CCC(N2C(=O)c3ccccc3C2=O)C(=O)N1 (stereo not shown) [thalidomide],effect on cell morphology,HUVEC [3],no effect on HUVEC morphology
same,effects on HUVEC tubulogenesis on MATRIGEL,"HUVEC [5]; 10, 1, 0.1, 0.01 and 0.001 μM",No effects
